Patent publication US10183015B2, “Heterocyclic compounds and methods of use” (Medivation Technologies LLC, priority 2015, dated 2019)
pIC50: −log10 of the molar value. Where “and” joins values, the source holds several entries; their conditions need not be identical. Equal values may be shown once.

Assays:
[1] = tested on: SREBP; test: SREBP-responsive promoter luciferase reporter assay in HepG2_LSSprom cells; format: cell-based; conditions: 6 hours of treatment, medium without serum; read-out: IC50 for luciferase expression
Description: HepG2_LSSprom cells were cultured in DMEM with 10% fetal bovine serum and 1% penicillin/streptomycin for 24 hours. Cells were then treated with increasing concentrations of Compound #37 or an equal volume of DMSO in culture medium without serum. Luciferase expression was measured and compared after 6 hours of treatment.

[2] = tested on: INSIG1; test: DIN mouse model: hepatic INSIG1 gene expression; format: in vivo; design: key to 2^DDct: expression relative to vehicle group, normalized to 18S; conditions: for 2^DDct / DDct / Dct / INSIG1: Gene Expression: INSIG1, 20 mg/kg group; for 18S: Gene Expression: INSIG1 table, 18S reference, 20 mg/kg group
Description: (§1) Gene expression analysis. Hepatic expression levels of genes involved in lipid metabolism (FAS, SREBP1, ACC1, SCD1), cholesterol metabolism (HMG-CoAR, LDLR), SREBP proteolysis (SCAP, INSIG1), ER stress (PERK), oxidative stress (NRF2), inflammation (MCP-1), and fibrosis (collagen 1α1) were quantified by RTqPCR. Expression level was normalized to 18S gene expression and relative expression to vehicle group was calculated with the […] method.
Male C57Bl/6J mice (8 weeks old) were housed in enriched ventilated cages (31×12.5×12.7 cm) throughout the experimental phase. Animals' cages litters were changed at least once a week. Animal were housed 5 per cage on inverted 12-hour light cycle (at 09:00 am lights off), 22±2° C. and 55±10% relative humidity. The acclimation period was 20 days. During the acclimation period, all mice were fed a standard diet (RM1 (E) 801492, SDS) and tap water ad libitum. After the acclimation period, mice were fed with the DIN diet (60% fat, cholesterol enriched) and fructose-enriched tap water ad libitum until the end of the experiment.
At 6 weeks of diet, mice were 4-hour fasted (09:00 am to 1:00 pm) and blood (150 μl/EDTA) was collected at 01:00 pm by retro-orbital bleeding under isoflurane anesthesia. Mice were then allocated in 2 homogenous groups (n=12/group) according to their plasma levels of ALT (average levels: 685U/L), AST (average levels: 627U/L) and HOMA-IR index (average value: 4.7), into 2 homogenous groups (see values at day 0 in Tables 15A and 15B ALT/AST and Tables 16A and 16B for HOMA-IR). Mice were then treated once daily by oral gavage with vehicle (Group 1) or Compound #37 at 20 mg/kg (Group 2) for 70 days.
Hepatic expression levels of genes involved in lipid (FAS, SREBP1, ACC1, SCD1), cholesterol metabolism (HMG-CoAR, LDLR), in SREBP proteolysis (SCAP, INSIG1), in ER stress (PERK), oxidative stress (NRF2), and inflammation (MCP-1) were not changed. However, expression of collagen 1α1, involved in liver fibrosis, was reduced by 66% in mice treated with Compound #37 (p<0.05 vs. vehicle).

[3] = tested on: ACC1; test: Short-term Paigen-diet NASH mouse model: hepatic ACC1 gene expression (RT-qPCR); format: in vivo; conditions: liver, 21 days; for DDct: ACC1 Dct relative to vehicle mean; for Dct: ACC1 minus 18S; for 2DDct: ACC1 relative expression to vehicle group, normalized to 18S; for ACC1: raw RT-qPCR value
Description: To investigate whether Compound #37 prevents the development of pathology associated with NASH and steatosis in an acute exploratory disease model, a study was conducted using a diet-induced acute liver steatosis model in mice. As described below, in this study, C57BL/6J mice were initiated on the Paigen diet and simultaneously treated with Compound #37 (5, 20, and 40 mg/kg/day) or vehicle control (20% HPβCD 10 mL/kg/day) by oral gavage for 21 days.
After acclimation, 8-week old male C57Bl/6J mice (Charles River) weighing about 25 g were randomized in 4 groups according their body weight and treated once daily around noon by oral gavage with vehicle, or Compound #37 at various for 21 days as follows: Group 1: vehicle-20% (2-hydroxypropyl)-β-cyclodextrin (HP-β-CD) (n=10); Group 2: Compound #37, 5 mg/kg (n=10) Group 3: Compound #37, 20 mg/kg (n=10) Group 4: Compound #37, 40 mg/kg (n=10). During the treatment period, body weight and food intake (measured over 24h) were measured 3 times per week and once a week, respectively. During the acclimation, all mice were fed a standard diet (Special Diets Services RM1 (E), product no. 801492) and tap water ad libitum. After the acclimation period, mice were fed until the end of the experiment with a 60% high fat Paigen diet (60 kcal % fat, 1.25% cholesterol, and 0.5% cholate; D11061901, Research Diet) and tap water ad libitum.
as §1

[4] = Short-term Paigen-diet NASH mouse model: Compound #37 plasma concentration 1 hour after final dose; format: in vivo; conditions: for concentration at 1 h: male, C57Bl/6J, mouse, plasma, oral
Excerpt: After 21 days of treatment, mice were 4-hour fasted (9 am to 1 pm). One hour after the last dosing (noon), blood was collected by retro-orbital bleeding (maximal volume on EDTA) under isoflurane anesthesia to measure plasma triglycerides, total cholesterol, non-esterified fatty acid, ALT and AST. Mice were then sacrificed by cervical dislocation, and livers were harvested and weighed. Liver samples from the same lobe were dissected, frozen, and analyzed as described below.
The Paigen diet in the C57Bl/6J mouse strain typically results in an initial acute weight loss that recovers over time (Hebbard & George, 2011; vendor historical unpublished data). […] Dosing of this group was stopped on day 4 and the surviving mice were sacrificed on day 9, 1 hour after a final dose to analyze drug exposure. […] No mice died in the Compound #37 5 mg/kg/day or vehicle control groups (10 mice each group).
The death of animals in the Compound #37 40 mg/kg/day and 20 mg/kg/day groups appears to be related to synergistic weight loss due to a combination of the Paigen diet and the inappetence effects of Compound #37 observed in repeat-dose toxicity studies in rats and dogs. […] Compound #37 mean plasma concentration 1 hour after final dose administration on day 21 was 20.4 μM (±4.33 μM) and 112 μM (±26.0 μM) for the 5 mg/kg and 20 mg/kg groups, respectively. The Compound #37 mean plasma concentration 1 hour after final dose administration for the 4 animals on day 9 in the 40 mg/kg group was 136 μM (±37.1 μM). These exposures at 1 hour after dosing are approximately 2-fold higher than those observed in healthy mice and may be related to altered Compound #37 metabolism in this acute liver injury model.

[5] = Compound #37 5 mg/kg, group mean, n=8
[6] = Compound #37 5 mg/kg, individual animals, 5 mg/kg
[7] = Compound #37 20 mg/kg, group mean, n=6
[8] = Compound #37 20 mg/kg, individual animals, 20 mg/kg

Question: What does the source list for `CC(C)Cc1cc(-c2nc(-c3ccc(NS(=O)(=O)C(F)(F)F)cc3Cl)cs2)ccn1` [Compound 37, N-(3-chloro-4-(2-(2-isobutylpyridin-4-yl)thiazol-4-yl)phenyl)-1,1,1-trifluoromethanesulfonamide]?
Answer: pIC50 [1]: 5.57; 2^DDct ([2]; individual animal): 2.07 and 2.24 and 0.78 (2×) and 1.54 and 1.51 and 1.65 and 1.45 and 1.43 and 0.46 and 2.84; DDct ([2]; individual animal): −1.05 and −1.17 and 0.36 (2×) and −0.63 and −0.60 and −0.73 and −0.54 and −0.52 and 1.13 and −1.51; Dct ([2]; individual animal): 9.85 and 9.73 and 11.26 (2×) and 10.27 and 10.3 and 10.17 and 10.36 and 10.38 and 12.03 and 9.39; INSIG1 ([2]; individual animal): 22.4 and 22.28 and 24.1 and 22.7 and 22.65 and 22.76 (2×) and 22.09 and 22.89 and 23.58 and 21.74; 2^DDct ([2]; mean, n 11): 1.52; DDct ([2]; mean, n 11): −0.44; Dct ([2]; mean, n 11): 10.5; INSIG1 ([2]; mean, n 11): 22.7; 18S ([2]; individual animal, 20 mg/kg): 12.55 (2×) and 12.84 and 12.43 and 12.35 (2×) and 12.59 and 11.73 and 12.51 and 11.5 and 11.55; 18S ([2]; mean, n 11): 12.3; DDct [3, 5]: 0.81; DDct [3, 6]: 1.08 and 0.78 and 1.88 and 3.12 and −0.53 and −0.87 and 1.01 and 0.01; DDct [3, 7]: 2.71; DDct [3, 8]: 0.6 and 7.15 and 3.66 and 0.46 and 3.91 and 0.45; Dct [3, 5]: 18.7; Dct [3, 6]: 19 and 18.7 and 19.8 and 21.04 and 17.39 and 17.05 and 18.93 and 17.93; Dct [3, 7]: 20.6; Dct [3, 8]: 18.52 and 25.07 and 21.58 and 18.38 and 21.83 and 18.37; 2DDct [3, 5]: 0.78; 2DDct [3, 6]: 0.47 and 0.58 and 0.27 and 0.12 and 1.44 and 1.83 and 0.5 and 0.99; 2DDct [3, 7]: 0.38; 2DDct [3, 8]: 0.66 and 0.01 and 0.08 and 0.73 (2×) and 0.07; ACC1 [3, 5]: 30.9; ACC1 [3, 6]: 32.46 and 31.81 and 31.41 and 34.39 and 28.99 and 28.84 and 30.07 and 29.05; ACC1 [3, 7]: 32.8; ACC1 [3, 8]: 31.43 and 37.36 and 33.78 and 31.41 and 33.32 and 29.63; exposure at 1 hour after dosing relative to healthy mice ([4]; acute liver injury model vs healthy mice): approximately 2 fold; concentration at 1 h ([4]; 5 mg/kg, day 21): 20.4 µM; concentration at 1 h ([4]; 20 mg/kg, day 21): 112 µM; concentration at 1 h ([4]; 40 mg/kg, day 9, 4 animals): 136 µM
